{"source": "paper PMC8058401", "about": "“Identification and Characterization of Zika Virus NS5 Methyltransferase Inhibitors” (Frontiers in Cellular and Infection Microbiology, 2021)", "key": {"ZIKV [1]": {"system": "ZIKV", "details": "cited from earlier work"}, "ZIKV (SMGC-1)": {"system": "ZIKV (SMGC-1)", "assay": "cell viability assay based on ZIKV-induced cytopathic effect (CPE) in Huh-7 cells", "details": "Zika virus, Huh-7, read-out: EC50, protection from ZIKV induced CPE"}, "ZIKV [2]": {"system": "ZIKV", "assay": "virus yield reduction assay by qRT-PCR in Huh-7 cells", "details": "Huh7 cells, 72 hpi; for effect on viral RNA copy numbers: dose dependent"}, "WNV": {"system": "WNV", "set-up": "method as in Dong et al., 2008; Tao et al., 2018", "details": "ref Dong et al., 2008; Tao et al., 2018; read-out: EC50, anti-virus activity for WNV; cited from earlier work"}, "NS5 MTase of WNV": {"target": "NS5 MTase of WNV", "set-up": "method as in Dong et al., 2008", "details": "ref Dong et al., 2008; cited from earlier work"}, "DENV": {"system": "DENV", "set-up": "method as in Dong et al., 2008; Tao et al., 2018", "details": "ref Dong et al., 2008; Tao et al., 2018; read-out: EC50, anti-virus activity for DENV; cited from earlier work"}, "[3]": {"target": "ZIKV NS5 MTase (WT-MTase) (Zika virus, UniProt A0A024B7W1)", "assay": "biochemical"}, "NS5 MTase of DENV": {"target": "NS5 MTase of DENV", "set-up": "method as in Dong et al., 2008", "details": "ref Dong et al., 2008; cited from earlier work"}, "ZIKV NS5 WT-MTase": {"target": "ZIKV NS5 WT-MTase (Zika virus, UniProt A0A024B7W1)", "assay": "surface plasmon resonance assay, WT-MTase", "assay_type": "binding"}, "CCK-8 cytotoxicity assay": {"assay": "CCK-8 cytotoxicity assay", "details": "human"}, "ZIKV NS5 K105A-MTase": {"target": "ZIKV NS5 K105A-MTase (Zika virus, UniProt A0A024B7W1, K2625A)", "assay": "luminescence-based methyltransferase assay, K105A-MTase"}, "SARS-CoV-2 3CL-protease": {"system": "SARS-CoV-2 3CL-protease", "set-up": "method as in Jang et al., 2020", "details": "dose-dependent; ref Jang et al., 2020; cited from earlier work"}}, "note": "Where two headings read alike, the source gives them in different places.", "data": [{"smiles": "Cc1cc(N)c2cc(NC(=O)Nc3ccc4nc(C)cc(N)c4c3)ccc2n1", "note": "[NSC 12155]", "values": [{"measurement": "inhibitory activity toward ZIKV", "setting": "ZIKV [1]; no reference given", "value": "no inhibitory activity"}]}, {"smiles": "CCN(CC)CCCC(C)Nc1ccnc2cc(Cl)ccc12", "note": "(stereo not shown) [chloroquine]", "values": [{"measurement": "EC50", "setting": "ZIKV (SMGC-1)", "value": 2.55, "unit": "µM"}, {"measurement": "effect on viral RNA copy numbers", "setting": "ZIKV [2]", "value": "significantly reduced viral RNA copy numbers"}, {"measurement": "EC50", "setting": "ZIKV [1]; ref Li C. et al., 2017, Han et al., 2019, read-out: EC50, ZIKV infection in vitro", "value": "1 to 5", "unit": "µM"}]}, {"smiles": "Nc1ncnc2c1ncn2[C@@H]1O[C@H](C[C@@H](N)CC[C@H](N)C(=O)O)[C@@H](O)[C@H]1O", "note": "[sinefungin]", "values": [{"measurement": "EC50", "setting": "WNV", "value": 27, "unit": "µM"}, {"measurement": "IC50", "setting": "NS5 MTase of WNV", "value": "~14", "unit": "µM"}, {"measurement": "EC50", "setting": "DENV", "value": 77, "unit": "µM"}, {"measurement": "IC50", "setting": "[3]", "value": 4.03, "unit": "µM"}, {"measurement": "EC50", "setting": "ZIKV [1]; ref Dong et al., 2008, Tao et al., 2018, read-out: EC50, anti-virus activity for ZIKV", "value": "> 50", "unit": "µM"}, {"measurement": "IC50", "setting": "NS5 MTase of DENV", "value": "~0.63", "unit": "µM"}]}, {"smiles": "O=c1c(O)cc([C@H]2Oc3cc(O)cc(O)c3C[C@H]2O)cc2c([C@H]3Oc4cc(O)cc(O)c4C[C@H]3O)cc(O)c(O)c12", "note": "[theaflavin]", "values": [{"measurement": "EC50", "setting": "ZIKV (SMGC-1)", "value": 8.19, "unit": "µM"}, {"measurement": "Kd", "setting": "ZIKV NS5 WT-MTase", "value": 64.4, "unit": "µM"}, {"measurement": "CC50 at 24 h", "setting": "CCK-8 cytotoxicity assay", "value": "> 128", "unit": "µM"}, {"measurement": "IC50", "setting": "ZIKV NS5 K105A-MTase", "value": 37.8, "unit": "µM"}, {"measurement": "IC50", "setting": "[3]", "value": 10.1, "unit": "µM"}, {"measurement": "inhibition at 20 µM", "setting": "[3]; at 20 μM, read-out: MTase inhibitory activity in initial screening", "value": "> 50", "unit": "%"}, {"measurement": "reduction of viral RNA detected in the supernatant", "setting": "ZIKV [2]; 20 μM", "value": "more than 50%"}, {"measurement": "effect on viral RNA copy numbers", "setting": "ZIKV [2]", "value": "significantly reduced viral RNA copy numbers"}, {"measurement": "inhibitory activity toward SARS-CoV-2 by targeting the 3CL-protease", "setting": "SARS-CoV-2 3CL-protease", "value": "significant inhibitory activity"}]}]}
